Patent US20120012822A1, “AROMATIC COMPOUND AND METHOD FOR PRODUCING SAME” (KEIO UNIVERSITY, priority 2009, published 2012)

How the values were obtained:
Solubility in hexane = assay type: physicochemical
Procedure: Next, 13.5 mg of 5,7,12,14-tetrakis(2-(triethylsilyl)ethyl)pentacene-6,13-dione was added to 51.6 mg of hexane at 22° C., and allowed to completely dissolve.
Next, 9.3 mg of a 1:1 mixture of 4,6,10,12-tetrakis(2-(triethylsilyl)ethyl)anthra[2,3-b : 6,7-b′]dithiophene-5,11-dione and 4,6,10,12-tetrakis(2-(triethylsilyl)ethyl)anthra[2,3-b:7,6-b′]dithiophene-5,11-dione was added to 180.1 mg of hexane at 26° C., and allowed to completely dissolve. The solubility in hexane was 5 wt %.

In the case of CC[Si](CC)(CC)CCc1c2c(c(CC[Si](CC)(CC)CC)c3ccccc13)C(=O)c1c(c(CC[Si](CC)(CC)CC)c3ccccc3c1CC[Si](CC)(CC)CC)C2=O [5,7,12,14-tetrakis(2-(triethylsilyl)ethyl)pentacene-6,13-dione], the melting point was 171 to 171.5 °C and the solubility in hexane (Solubility in hexane) was 26 wt %.
